For series [1] the following is noted: preserved at 40° C. for 4 days; cited from earlier work.
The nature of series [2]: Stability test of the solid dispersion comprising vitamin D (cholecalciferol content by HPLC, 60° C. dried oven). The series is classed as physicochemical. As for the experimental part:
The time-dependent change of the cholecalciferol content of each test material was analyzed using the solid dispersions prepared in Comparative Example 2 (0.07 mg of cholecalciferol) and Examples 1 to 4 as test materials, during the period of incubating the test materials in a 60° C. dried oven.
Each test material was pretreated as follows, before the analysis of cholecalciferol.
Each test material was taken in the amount corresponding to about 28 mg cholecalciferol and placed in a 50 ml flask, 5 ml of 0.01 M HCl was added thereto, the mixture was ultrasonicated for 3 minutes, and the flask was filled with ethanol. 15 ml of the resulting solution was mixed with 5 ml of purified water and 20 ml of n-hexane for 5 minutes, and centrifuged at 2000 rpm for 5 minutes. 10 ml of the supernatant was harvested, evaporated under a reduced pressure, and 2 ml of n-hexane was added thereto. The cholecalciferol content of each test material was analyzed by HPLC under the following conditions. The results are shown in Table 7. • Column: silica column (5 μm, 4.6 mm×250 mm) • Mobile phase: (chloroform: n-hexane: tetrahydrofuran=650:350:10 (v/v)) • Injecting volume: 100 μl • Flow rate: 1.0 ml/min • Detector: ultraviolet spectrophotometer (wavelength: 254 nm; L-7400, HITACHI, Japan)

For the molecule `C=C1CC[C@H](O)C/C1=C/C=C1\CCC[C@]2(C)[C@@H]([C@H](C)CCCC(C)C)CC[C@@H]12` [vitamin D3, cholecalciferol], the “content of vitamin D3 in the formulation, of the original content” value in series [1] was “about 86.3%”.

For `C=C1CC[C@H](O)C/C1=C/C=C1\CCC[C@]2(C)[C@@H]([C@H](C)CCCC(C)C)CC[C@@H]12` [Comparative Example 2, cholecalciferol], the cholecalciferol content in series [2] (2 weeks) turned out to be 3.3%; in series [2] (4 weeks) it was 0.0%; in series [2] (incubation time 0), 100%.

Source of the values: patent US20100048511A1, “COMPLEX FORMULATION FOR PREVENTING OR TREATING OSTEOPOROSIS WHICH COMPRISES SOLID DISPERSION OF VITAMIN D OR ITS DERIVATIVE AND BISPHOSPHONATE” (priority 2006, published 2010).
